Measurements as given in patent US20240228494A1, “COMPOUNDS” (PATHIOS THERAPEUTICS LIMITED, priority 2021, published 2024).

Target: human recombinant GPR65 (Homo sapiens, UniProt Q8IYL9)
Assay: Human GPR65 cAMP HTRF antagonist assay
Format: cell-based
Settings: not given
From the text: In one preferred embodiment, the compound prevents the increase in cytoplasmic cAMP levels expected following GPR65 activation at acidic pH. This prevention of cAMP accumulation in turn prevents downstream signalling through ICER, as described above. The “Human GPR65 cyclic adenosine monophosphate (cAMP) Homogeneous Time Resolved Fluorescence (HTRF) antagonist assay”, or simply “cAMP assay”, as described in the accompanying examples, can be used to measure the potency of GPR65 modulators, which is expressed as the concentration of compound required to reduce the increase in cAMP concentration upon GPR65 activation by 50% (i.e. an IC50).
Human GPR65 Cyclic Adenosine Monophosphate (cAMP) Homogeneous Time Resolved Fluorescence (HTRF) Antagonist Assay Procedure
IC50 data was obtained by the following procedure:
1321N1 human astrocytoma cells stably expressing human recombinant GPR65 (1321N1-hrGPR65 cells, EuroscreenFast) were cultured according to the vendor's instructions.
Compounds were tested for their ability to antagonise GPR65, through measuring the concentration of cytoplasmic cAMP following treatment of the cells at a pH of 7.2 to activate GPR65 signalling and addition of the compound to be tested. The extent to which the expected rise in cAMP concentration upon GPR65 activation was suppressed by the added compound is indicative of its potency. The assay was carried out according to EuroscreenFast assay methodology as follows.
On the day of the assay, test compounds were added to 384-well, low volume, white microtiter plates by acoustic dispensing. KRH buffer (5 mM KCl, 1.25 mM MgSO4, 124 mM NaCl, 25 mM HEPES, 13.3 mM Glucose, 1.25 mM KH2PO4 and 1.45 mM CaCl2) was adjusted to pH 6.5, pH 7.6 and pH 8.4 by adding NaOH. 1321N1-hGPR65 cells were rapidly thawed and diluted in KRH, pH 7.6 prior to centrifugation at 300×g for 5 min and resuspension in assay buffer (KRH, pH 7.6, supplemented with 1 mM 3-isobutyl-1-methylxanthine (IBMX) and 200 μM ethylenediaminetetraacetic acid (EDTA)). Cells were added to assay plates at a density of 2,000 cells per well in a volume of 5 μl. Assay plates were briefly centrifuged at 100×g and then incubated at room temperature for 30 min. Cells were stimulated by the addition of 5 μL KRH, pH 6.5, to achieve an assay pH of 7.2, while control wells received 5 μl KRH, pH 8.4 to achieve an assay pH of 7.9. Assay plates were briefly centrifuged at 100×g and then incubated at room temperature for 30 min.
Accumulation of cAMP was detected by cAMP HTRF kit (Cisbio). d2-labeled cAMP and cryptate-labeled anti-cAMP antibody in Lysis and Detection Buffer (Cisbio) were added to assay plates, and the plates were incubated at room temperature for 1 h. HTRF measurements were performed using a Pherastar FSX instrument. Acceptor and donor emission signals were measured at 665 nm and 620 nm, respectively, and HTRF ratios were calculated as signal665 nm/signal620 nm×10^4. Data were normalised to high and low control values and fitted with 4-parameter logistic regression to determine hGPR65 IC50 values for the test compounds, which are shown in Table 1.

human recombinant GPR65, sequence (Q8IYL9 whole entry): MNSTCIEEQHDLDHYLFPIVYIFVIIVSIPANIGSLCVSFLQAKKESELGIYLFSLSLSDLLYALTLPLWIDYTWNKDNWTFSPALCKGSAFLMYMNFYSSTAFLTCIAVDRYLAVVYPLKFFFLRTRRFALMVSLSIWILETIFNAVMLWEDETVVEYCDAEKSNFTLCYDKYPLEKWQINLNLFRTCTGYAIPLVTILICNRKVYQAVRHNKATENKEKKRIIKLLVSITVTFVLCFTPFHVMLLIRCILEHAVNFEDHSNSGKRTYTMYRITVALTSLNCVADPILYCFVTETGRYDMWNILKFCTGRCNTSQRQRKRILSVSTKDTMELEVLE

O/N=C(\Nc1cc(Cl)c(Cl)cc1F)N1[C@H]2CC[C@@H]1c1ccnc(F)c1C2 [Compound 15, (5R,8S)—N-(4,5-dichloro-2-fluorophenyl)-1-fluoro-N′-hydroxy-6,7,8,9-tetrahydro-5H-5,8-epiminocyclohepta[c]pyridine-10-carboximidamide] and CO/N=C(\Nc1cc(Cl)c(Cl)cc1F)N1[C@H]2CC[C@@H]1c1ccnc(F)c1C2 [Compound 16, (5R,8S)—N-(4,5-dichloro-2-fluorophenyl)-1-fluoro-N′-methoxy-6,7,8,9-tetrahydro-5H-5,8-epiminocyclohepta[c]pyridine-10-carboximidamide] cannot be ordered by IC50: under 0.5 µM for the first, under 0.5 µM for the second.

First: S=C(Nc1ccc(Cl)c(Cl)c1)N1C2CCC1c1cncnc1C2 (racemic) [Compound 5, (±)-N-(3,4-dichlorophenyl)-6,7,8,9-tetrahydro-5H-5,8-epiminocyclo-hepta[d]pyrimidine-10-carbothioamide]
Second: O=C(Oc1ccc(Cl)c(Cl)c1)N1C2CCC1c1cncnc1C2 (racemic) [Compound 10, 3,4-dichlorophenyl (±)-6,7,8,9-tetrahydro-5H-5,8-epiminocyclohepta-[d]pyrimidine-10-carboxylate]
The IC50 of the first is lower: under 0.5 µM for the first, 0.5 to 5 µM for the second. The first is the more potent here.

N#C/N=C(/Nc1cc(C(F)(F)F)c(Cl)cc1F)N1[C@H]2CC[C@@H]1c1ccnc(F)c1C2 [Compound 11, (5R,8S)-N-(4-Chloro-2-fluoro-5-(trifluoromethyl)phenyl)-N′-cyano-1-fluoro-6,7,8,9-tetrahydro-5H-5,8-epimino-cyclohepta[c]pyridine-10-carboximidamide] and N#C/N=C(/Nc1cc(Cl)c(Cl)cc1F)N1[C@H]2CC[C@@H]1c1ccnc(F)c1C2 [Compound 12, (5R,8S)-N′-cyano-N-(4,5-dichloro-2-fluorophenyl)-1-fluoro-6,7,8,9-tetrahydro-5H-5,8-epiminocyclohepta-[c]pyridine-10-carboximidamide] cannot be ordered by IC50: under 0.5 µM for the first, under 0.5 µM for the second.

Fc1cc(C(F)(F)F)c(Cl)cc1NC(=S)N1[C@H]2CC[C@@H]1c1ccnc(F)c1C2 [Compound 4, (5R,8S)-N-(5-chloro-2-fluoro-4-(trifluoromethyl)phenyl)-1-fluoro-6,7,8,9-tetrahydro-5H-5,8-epiminocyclohepta[c]pyridine-10-carbothioamide] and Fc1cc(C(F)(F)F)c(Br)cc1NC(=S)N1[C@H]2CC[C@@H]1c1ccnc(F)c1C2 [Compound 1, (5R,8S)—N-(5-Bromo-2-fluoro-4-(trifluoromethyl)phenyl)-1-fluoro-6,7,8,9-tetrahydro-5H-5,8-epiminocyclohepta[c]pyridine-10-carbothioamide] cannot be ordered by IC50: under 0.5 µM for the first, under 0.5 µM for the second.

First: Fc1cc(Cl)c(Cl)cc1CN1[C@H]2CC[C@@H]1c1ccnc(F)c1C2 [Compound 9, (5R,8S)-10-(4,5-dichloro-2-fluorobenzyl)-1-fluoro-6,7,8,9-tetrahydro-5H-5,8-epiminocyclohepta[c]pyridine]
Second: Fc1cc(Cl)c(Cl)cc1NC(=S)N1[C@H]2CC[C@@H]1c1ccnc(F)c1C2 [Compound 3, (5R,8S)-N-(4,5-dichloro-2-fluorophenyl)-1-fluoro-6,7,8,9-tetrahydro-5H-5,8-epiminocyclo-hepta[c]pyridine-10-carbothioamide]
The IC50 of the first is higher: 0.5 to 5 µM for the first, under 0.5 µM for the second. The second is the more potent here.

Compared with O=C(C(=O)N1[C@H]2CC[C@@H]1c1ccnc(F)c1C2)c1ccc(Cl)c(Cl)c1 [Compound 13, 1-(3,4-Dichlorophenyl)-2-((5R,8S)-1-fluoro-6,7,8,9-tetrahydro-5H-5,8-epiminocyclohepta[c]pyridin-10-yl)ethane-1,2-dione], N#C/N=C(\Nc1ccc(Cl)c(Cl)c1)N1[C@H]2CC[C@@H]1c1ccnc(F)c1C2 [Compound 6, (5R,8S,)—N′-Cyano-N-(3,4-dichlorophenyl)-1-fluoro-6,7,8,9-tetrahydro-5H-5,8-epiminocyclohepta[c]pyridine-10-carboximidamide] is lower in IC50: 0.5 to 5 µM for the first, under 0.5 µM for the second.

O=c1cc2c(c[nH]1)[C@H]1CC[C@@H](C2)N1C(=S)Nc1cc(Cl)c(C(F)(F)F)cc1F [Compound 2, (6S,9R)-N-(5-Chloro-2-fluoro-4-(trifluoromethyl)phenyl)-3-oxo-3,5,6,7,8,9-hexahydro-2H-6,9-epiminocyclohepta[c]pyridine-10-carbothioamide] gave an IC50 of under 0.5 µM.

Same assay, conditions: 1321N1-hrGPR65 cells, assay pH 7.2, suppression of cAMP rise; read-out: hGPR65 IC50

First: N=C(Nc1cc(Cl)c(Cl)cc1F)N1[C@H]2CC[C@@H]1c1ccnc(F)c1C2 [Compound 17, (5R,8S)—N′-(4,5-dichloro-2-fluorophenyl)-1-fluoro-6,7,8,9-tetrahydro-5H-5,8-epiminocyclohepta[c]pyridine-10-carboximidamide]
Second: O=C(Cc1ccc(Cl)c(Cl)c1)N1[C@H]2CC[C@@H]1c1ccnc(F)c1C2 [Compound 8, 2-(3,4-dichlorophenyl)-1-((5R,8S)-1-fluoro-6,7,8,9-tetrahydro-5H-5,8-epimino-cyclohepta[c]pyridin-10-yl)ethan-1-one]
The IC50 of the first is higher: over 5 µM for the first, 0.5 to 5 µM for the second. The second is the more potent here.

With O=C(C(O)c1ccc(Cl)c(Cl)c1)N1[C@H]2CC[C@@H]1c1ccnc(F)c1C2 (single isomer, unassigned) [Compound 7] the IC50 was over 5 µM.
